From patent US12544463B2, “Deuterium substituted positron emission tomography (PET) imaging agents and their pharmacological application” (Five Eleven Pharma Inc., priority 2017, dated 2026)
“And” between values parts separate entries of the source, which are not always exact repeats. Identical values can stand only once. Values belong to the compound of their own block, whether it stands above or below them.

Key:
VMAT2 = target: T1, VMAT2 (Rattus norvegicus, UniProt Q01827); test: Regional brain distribution and ratio vs cerebellum in rats (VMAT2 tracers); assay type: in vivo; details: IV
T1 construct: from tissue; host or cells: live rats (normal male CD rats), dissected brain regions
Protocol: (§1) Three rats per group were used for each biodistribution study. While under isoflurane anesthesia, 0.2 mL of a saline solution containing 20 μCi of radioactive tracer was injected into the femoral vein. The rats were sacrificed at the time indicated by cardiac excision while under isoflurane anesthesia. Organs of interest were removed and weighed, and the radioactivity was counted. The percent dose per organ was calculated by comparing the tissue counts to counts of 1% of the initial dose (100 times diluted aliquots of the injected material) measured at the same time. Regional brain distribution in rats was measured after an iv injection of the radioactive tracer. Samples from different brain regions (cortex, striatum, hippocampus, cerebellum and hypothalamus) were dissected, weighed and counted. The percentage dose/g of each sample was calculated by comparing sample counts with the counts of the diluted initial dose described above. The ratio was calculated by dividing the percentage dose/g of each region by that of the cerebellum. The cerebellum was used as the reference region for calculating the ratio of target to non-target binding, because only a trace amount of VMAT2 binding site is present in the cerebellum.

[1] = Biodistribution in rats: ^18F-FP-(+)DTBZ vs ^18F-FP-DTBZ-D6; assay type: in vivo, rat; details: for Biodistribution Blood / Biodistribution Bone / Biodistribution Brain / Biodistribution Heart / Biodistribution Kidney / Biodistribution Liver / Biodistribution Lung / Biodistribution Muscle / Biodistribution Pancreas / Biodistribution Skin / Biodistribution Spleen: IV
Protocol: as §1

[2] = 60 min, listed as 18F-FP-DTBZ-D6 (^18F-Ia)
[3] = 120 min, listed as 18F-FP-DTBZ-D6 (^18F-Ia)

T1 sequence (Q01827 whole entry): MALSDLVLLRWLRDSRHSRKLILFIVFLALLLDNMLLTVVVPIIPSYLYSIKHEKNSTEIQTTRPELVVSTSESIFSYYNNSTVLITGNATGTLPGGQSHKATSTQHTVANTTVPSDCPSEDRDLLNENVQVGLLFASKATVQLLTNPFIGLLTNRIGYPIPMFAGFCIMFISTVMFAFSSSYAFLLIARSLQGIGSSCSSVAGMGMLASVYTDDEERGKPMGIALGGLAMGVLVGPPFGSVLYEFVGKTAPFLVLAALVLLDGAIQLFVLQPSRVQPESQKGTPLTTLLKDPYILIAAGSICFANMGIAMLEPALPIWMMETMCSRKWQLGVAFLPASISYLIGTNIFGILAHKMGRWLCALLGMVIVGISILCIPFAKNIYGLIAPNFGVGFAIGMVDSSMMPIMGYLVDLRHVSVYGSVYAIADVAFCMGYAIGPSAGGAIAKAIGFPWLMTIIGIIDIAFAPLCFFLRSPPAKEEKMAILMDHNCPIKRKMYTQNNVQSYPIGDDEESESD

- Ratio vs. Cerebellum: Cerebellum (VMAT2; 2 min): 1.00 ± 0.00
- Ratio vs. Cerebellum: Cortex (VMAT2; 2 min): 1.36 ± 0.05
- Ratio vs. Cerebellum: Hippocampus (VMAT2; 2 min): 1.26 ± 0.04
- Ratio vs. Cerebellum: Hypothalamus (VMAT2; 2 min): 1.71 ± 0.10
- Ratio vs. Cerebellum: Remainder (VMAT2; 2 min): 1.33 ± 0.03
- Ratio vs. Cerebellum: Striatum (VMAT2; 2 min): 2.08 ± 0.30
- Regional Brain Distribution Cerebellum (VMAT2; 2 min): 0.48 ± 0.04 % dose/gram
- Regional Brain Distribution Cortex (VMAT2; 2 min): 0.65 ± 0.07 % dose/gram
- Regional Brain Distribution Hippocampus (VMAT2; 2 min): 0.60 ± 0.07 % dose/gram
- Regional Brain Distribution Hypothalamus (VMAT2; 2 min): 0.82 ± 0.10 % dose/gram
- Regional Brain Distribution Remainder (VMAT2; 2 min): 0.64 ± 0.07 % dose/gram
- Regional Brain Distribution Striatum (VMAT2; 2 min): 1.00 ± 0.22 % dose/gram
- Ratio vs. Cerebellum: Cerebellum (VMAT2; 60 min): 1.00 ± 0.00
- Ratio vs. Cerebellum: Cortex (VMAT2; 60 min): 1.13 ± 0.02
- Ratio vs. Cerebellum: Hippocampus (VMAT2; 60 min): 1.68 ± 0.12
- Ratio vs. Cerebellum: Hypothalamus (VMAT2; 60 min): 3.93 ± 0.15
- Ratio vs. Cerebellum: Remainder (VMAT2; 60 min): 1.59 ± 0.04
- Ratio vs. Cerebellum: Striatum (VMAT2; 60 min): 6.05 ± 0.43
- Regional Brain Distribution Cerebellum (VMAT2; 60 min): 0.23 ± 0.01 % dose/gram
- Regional Brain Distribution Cortex (VMAT2; 60 min): 0.26 ± 0.01 % dose/gram
- Regional Brain Distribution Hippocampus (VMAT2; 60 min): 0.39 ± 0.01 % dose/gram
- Regional Brain Distribution Hypothalamus (VMAT2; 60 min): 0.91 ± 0.03 % dose/gram
- Regional Brain Distribution Remainder (VMAT2; 60 min): 0.37 ± 0.02 % dose/gram
- Regional Brain Distribution Striatum (VMAT2; 60 min): 1.40 ± 0.06 % dose/gram
- Ratio vs. Cerebellum: Striatum (VMAT2; [2]): 6.05
- Ratio vs. Cerebellum: Cerebellum (VMAT2; 120 min): 1.00 ± 0.00
- Ratio vs. Cerebellum: Cortex (VMAT2; 120 min): 1.10 ± 0.09
- Ratio vs. Cerebellum: Hippocampus (VMAT2; 120 min): 1.74 ± 0.32
- Ratio vs. Cerebellum: Hypothalamus (VMAT2; 120 min): 3.56 ± 0.49
- Ratio vs. Cerebellum: Remainder (VMAT2; 120 min): 1.52 ± 0.03
- Ratio vs. Cerebellum: Striatum (VMAT2; 120 min): 5.49 ± 0.43
- Regional Brain Distribution Cerebellum (VMAT2; 120 min): 0.18 ± 0.01 % dose/gram
- Regional Brain Distribution Cortex (VMAT2; 120 min): 0.20 ± 0.00 % dose/gram
- Regional Brain Distribution Hippocampus (VMAT2; 120 min): 0.31 ± 0.04 % dose/gram
- Regional Brain Distribution Hypothalamus (VMAT2; 120 min): 0.65 ± 0.11 % dose/gram
- Regional Brain Distribution Remainder (VMAT2; 120 min): 0.28 ± 0.02 % dose/gram
- Regional Brain Distribution Striatum (VMAT2; 120 min): 1.00 ± 0.08 % dose/gram
- increase in total brain uptake vs ^18F-FP-(+)DTBZ ([1]; 120 min after iv injection): 40%
- Biodistribution Blood ([1]; 2 min): 0.23 ± 0.03 % dose/g
- Biodistribution Bone ([1]; 2 min): 0.33 ± 0.04 % dose/g
- Biodistribution Brain ([1]; 2 min): 0.64 ± 0.07 % dose/g
- Biodistribution Heart ([1]; 2 min): 0.69 ± 0.12 % dose/g
- Biodistribution Kidney ([1]; 2 min): 1.89 ± 0.07 % dose/g
- Biodistribution Liver ([1]; 2 min): 2.79 ± 0.12 % dose/g
- Biodistribution Lung ([1]; 2 min): 0.87 ± 0.05 % dose/g
- Biodistribution Muscle ([1]; 2 min): 0.17 ± 0.02 % dose/g
- Biodistribution Pancreas ([1]; 2 min): 2.62 ± 0.15 % dose/g
- Biodistribution Skin ([1]; 2 min): 0.24 ± 0.02 % dose/g
- Biodistribution Spleen ([1]; 2 min): 1.04 ± 0.10 % dose/g
- Biodistribution Blood ([1]; 60 min): 0.11 ± 0.01 % dose/g
- Biodistribution Bone ([1]; 60 min): 0.47 ± 0.02 % dose/g
- Biodistribution Brain ([1]; 60 min): 0.44 ± 0.02 % dose/g
- Biodistribution Heart ([1]; 60 min): 0.26 ± 0.01 % dose/g
- Biodistribution Kidney ([1]; 60 min): 0.66 ± 0.04 % dose/g
- Biodistribution Liver ([1]; 60 min): 3.19 ± 0.46 % dose/g
- Biodistribution Lung ([1]; 60 min): 0.49 ± 0.00 % dose/g
- Biodistribution Muscle ([1]; 60 min): 0.11 ± 0.00 % dose/g
- Biodistribution Pancreas ([1]; 60 min): 5.01 ± 0.69 % dose/g
- Biodistribution Skin ([1]; 60 min): 0.25 ± 0.01 % dose/g
- Biodistribution Spleen ([1]; 60 min): 0.66 ± 0.03 % dose/g
- Biodistribution Bone [1, 2]: 0.47 % dose/g
- Biodistribution Blood ([1]; 120 min): 0.10 ± 0.00 % dose/g
- Biodistribution Bone ([1]; 120 min): 0.65 ± 0.03 % dose/g
- Biodistribution Brain ([1]; 120 min): 0.34 ± 0.02 % dose/g
- Biodistribution Heart ([1]; 120 min): 0.21 ± 0.01 % dose/g
- Biodistribution Kidney ([1]; 120 min): 0.59 ± 0.02 % dose/g
- Biodistribution Liver ([1]; 120 min): 3.10 ± 0.49 % dose/g
- Biodistribution Lung ([1]; 120 min): 0.41 ± 0.01 % dose/g
- Biodistribution Muscle ([1]; 120 min): 0.09 ± 0.01 % dose/g
- Biodistribution Pancreas ([1]; 120 min): 4.49 ± 0.17 % dose/g
- Biodistribution Skin ([1]; 120 min): 0.21 ± 0.01 % dose/g
- Biodistribution Spleen ([1]; 120 min): 0.51 ± 0.03 % dose/g
- Biodistribution Bone [1, 3]: 0.65 % dose/g
- Biodistribution Brain [1, 3]: 0.34 % dose/g
SMILES: [2H]C([2H])([18F])C([2H])([2H])C([2H])([2H])Oc1cc2c(cc1OC)[C@H]1C[C@@H](O)[C@H](CC(C)C)CN1CC2 [^18F-FP-(+)DTBZ-D6 (^18F-Ia)]

- Ratio vs. Cerebellum: Cerebellum (VMAT2; 2 min): 1.00 ± 0.00
- Ratio vs. Cerebellum: Cortex (VMAT2; 2 min): 1.21 ± 0.04
- Ratio vs. Cerebellum: Hippocampus (VMAT2; 2 min): 1.19 ± 0.03
- Ratio vs. Cerebellum: Hypothalamus (VMAT2; 2 min): 1.57 ± 0.04
- Ratio vs. Cerebellum: Remainder (VMAT2; 2 min): 1.23 ± 0.03
- Ratio vs. Cerebellum: Striatum (VMAT2; 2 min): 1.66 ± 0.15
- Regional Brain Distribution Cerebellum (VMAT2; 2 min): 0.68 ± 0.06 % dose/gram
- Regional Brain Distribution Cortex (VMAT2; 2 min): 0.82 ± 0.07 % dose/gram
- Regional Brain Distribution Hippocampus (VMAT2; 2 min): 0.80 ± 0.07 % dose/gram
- Regional Brain Distribution Hypothalamus (VMAT2; 2 min): 1.06 ± 0.10 % dose/gram
- Regional Brain Distribution Remainder (VMAT2; 2 min): 0.83 ± 0.06 % dose/gram
- Regional Brain Distribution Striatum (VMAT2; 2 min): 1.12 ± 0.04 % dose/gram
- Ratio vs. Cerebellum: Cerebellum (VMAT2; 60 min): 1.00 ± 0.00
- Ratio vs. Cerebellum: Cortex (VMAT2; 60 min): 1.13 ± 0.09
- Ratio vs. Cerebellum: Hippocampus (VMAT2; 60 min): 1.64 ± 0.19
- Ratio vs. Cerebellum: Hypothalamus (VMAT2; 60 min): 3.91 ± 0.37
- Ratio vs. Cerebellum: Remainder (VMAT2; 60 min): 1.68 ± 0.07
- Ratio vs. Cerebellum: Striatum (VMAT2; 60 min): 5.66 and 5.66 ± 0.72
- Regional Brain Distribution Cerebellum (VMAT2; 60 min): 0.19 ± 0.02 % dose/gram
- Regional Brain Distribution Cortex (VMAT2; 60 min): 0.21 ± 0.01 % dose/gram
- Regional Brain Distribution Hippocampus (VMAT2; 60 min): 0.30 ± 0.01 % dose/gram
- Regional Brain Distribution Hypothalamus (VMAT2; 60 min): 0.73 ± 0.11 % dose/gram
- Regional Brain Distribution Remainder (VMAT2; 60 min): 0.31 ± 0.02 % dose/gram
- Regional Brain Distribution Striatum (VMAT2; 60 min): 1.04 ± 0.05 % dose/gram
- Ratio vs. Cerebellum: Cerebellum (VMAT2; 120 min): 1.00 ± 0.00
- Ratio vs. Cerebellum: Cortex (VMAT2; 120 min): 1.11 ± 0.09
- Ratio vs. Cerebellum: Hippocampus (VMAT2; 120 min): 1.79 ± 0.12
- Ratio vs. Cerebellum: Hypothalamus (VMAT2; 120 min): 4.04 ± 0.66
- Ratio vs. Cerebellum: Remainder (VMAT2; 120 min): 1.59 ± 0.09
- Ratio vs. Cerebellum: Striatum (VMAT2; 120 min): 6.54 ± 0.59
- Regional Brain Distribution Cerebellum (VMAT2; 120 min): 0.13 ± 0.01 % dose/gram
- Regional Brain Distribution Cortex (VMAT2; 120 min): 0.15 ± 0.02 % dose/gram
- Regional Brain Distribution Hippocampus (VMAT2; 120 min): 0.24 ± 0.03 % dose/gram
- Regional Brain Distribution Hypothalamus (VMAT2; 120 min): 0.54 ± 0.11 % dose/gram
- Regional Brain Distribution Remainder (VMAT2; 120 min): 0.21 ± 0.02 % dose/gram
- Regional Brain Distribution Striatum (VMAT2; 120 min): 0.87 ± 0.12 % dose/gram
- Biodistribution Blood ([1]; 2 min): 0.24 ± 0.03 % dose/g
- Biodistribution Bone ([1]; 2 min): 0.45 ± 0.03 % dose/g
- Biodistribution Brain ([1]; 2 min): 0.83 ± 0.06 % dose/g
- Biodistribution Heart ([1]; 2 min): 0.96 ± 0.08 % dose/g
- Biodistribution Kidney ([1]; 2 min): 2.66 ± 0.15 % dose/g
- Biodistribution Liver ([1]; 2 min): 2.28 ± 0.04 % dose/g
- Biodistribution Lung ([1]; 2 min): 1.03 ± 0.03 % dose/g
- Biodistribution Muscle ([1]; 2 min): 0.11 ± 0.02 % dose/g
- Biodistribution Pancreas ([1]; 2 min): 2.29 ± 0.36 % dose/g
- Biodistribution Skin ([1]; 2 min): 0.19 ± 0.03 % dose/g
- Biodistribution Spleen ([1]; 2 min): 1.19 ± 0.10 % dose/g
- Biodistribution Blood ([1]; 60 min): 0.12 ± 0.00 % dose/g
- Biodistribution Bone ([1]; 60 min): 1.13 ± 0.07 % dose/g
- Biodistribution Brain ([1]; 60 min): 0.35 ± 0.03 % dose/g
- Biodistribution Heart ([1]; 60 min): 0.22 ± 0.03 % dose/g
- Biodistribution Kidney ([1]; 60 min): 0.63 ± 0.05 % dose/g
- Biodistribution Liver ([1]; 60 min): 2.59 ± 0.21 % dose/g
- Biodistribution Lung ([1]; 60 min): 0.41 ± 0.03 % dose/g
- Biodistribution Muscle ([1]; 60 min): 0.10 ± 0.01 % dose/g
- Biodistribution Pancreas ([1]; 60 min): 4.48 ± 0.27 % dose/g
- Biodistribution Skin ([1]; 60 min): 0.24 ± 0.03 % dose/g
- Biodistribution Spleen ([1]; 60 min): 0.50 ± 0.04 % dose/g
- Biodistribution Blood ([1]; 120 min): 0.07 ± 0.01 % dose/g
- Biodistribution Bone ([1]; 120 min): 1.86 % dose/g and 1.86 ± 0.24 % dose/g
- Biodistribution Brain ([1]; 120 min): 0.26 % dose/g and 0.26 ± 0.03 % dose/g
- Biodistribution Heart ([1]; 120 min): 0.16 ± 0.01 % dose/g
- Biodistribution Kidney ([1]; 120 min): 0.45 ± 0.02 % dose/g
- Biodistribution Liver ([1]; 120 min): 2.12 ± 0.20 % dose/g
- Biodistribution Lung ([1]; 120 min): 0.31 ± 0.02 % dose/g
- Biodistribution Muscle ([1]; 120 min): 0.07 ± 0.00 % dose/g
- Biodistribution Pancreas ([1]; 120 min): 3.56 ± 0.42 % dose/g
- Biodistribution Skin ([1]; 120 min): 0.17 ± 0.01 % dose/g
- Biodistribution Spleen ([1]; 120 min): 0.37 ± 0.05 % dose/g
SMILES: COc1cc2c(cc1OCCC[18F])CCN1C[C@@H](CC(C)C)[C@H](O)C[C@H]21 [^18F-FP-(+)DTBZ, reference compound]
